Marks after values point to notes of the source that are not given here.
What was measured:
mice [1] = test: Open field test; format: in vivo; conditions: for Distance covered during 1st min (horizontal motor activity) / Distance during 2nd min (horizontal motor activity) / Distance during 3rd min (horizontal motor activity) / Explorations during 2nd min / Explorations during 3rd min / Number of explorations (holes) during 1st min / Number of washings during 1st min / Total distance at 3 min (horizontal motor activity) / Total number of explorations at 3 min / Total number of visits to the center at 3 min / Total number of washings at 3 min / Visits to the center during 1st min / Visits to the center during 2nd min / Visits to the center during 3rd min / Washings during 2nd min / Washings during 3rd min / vertical motor activity, 1st min (Distance covered) / vertical motor activity, 2nd min / vertical motor activity, 3rd min / vertical motor activity, total at 3 min: mice
Experimental: Study of the effect of Phenotropil (100, 200, 300 mg/kg) on motor activity and exploratory behavior by the open field test on mice (16-24 g) in comparison with olanzapine (1 mg/kg) is shown in Tables 5-5.4. Olanzapine at higher doses has sedative activity, so for comparison with Phenotropil, the drug was used only at a dose of 1 mg/kg. The drugs and distilled water to control groups were injected intraperitoneally 40 minutes prior to the study. […] This indicates the ability of the drug to reversibility, unlike olanzapine.

mice [2] = test: Conflict situation (tranquilizing effect); format: in vivo; conditions: 300 mg/kg
Experimental: The tranquilizing effect of Phenotropil (300 mg/kg) was studied by the method of conflict situation and conflict of two reflexes (Vogel, 1971; Sanger et al., 1991; File, 1995; Molodavkin, Voronina, 1995), associated in this case with the desire to satisfy the motivation (drinking) and application of punishment (electric shock, received after each attempt to satisfy the motivation). In the created conflict situation, the animal is experiencing a strong negative stress. Tranquilizers reduce the level of anxiety and psychoemotional stress.

cAMP = cAMP level in functional dysmenorrhea patients; format: in vivo, human; conditions: for cAMP level / cAMP level, change in % (vs background dysmenorrhea): human plasma, primary dysmenorrhoea, first phase of the cycle
Experimental: Investigation of the effect of Phenotropil in amenorrhea and functional dysmenorrhea was conducted on groups of patients aged 14-27 years. The first group (20-27 years) diagnosed with schizophrenia, was on the maintenance neuroleptic therapy and had menstrual cycle irregularities in the form of amenorrhea (for more than 6 months). Of those, 4 had amenorrhea of not established nature, observed also prior to the pronounced primary manifestation of mental disorder, 6 patients had amenorrhea that developed during treatment with neuroleptics. Phenotropil, tablets was administered in doses of 100 mg and 200 mg per day as part of a complex antipsychotic therapy as a corrector of psychogenic side effects of neuroleptics. The dose was selected based on the individual and clinical features of the patients. The duration of Phenotropil therapy was 3 months. Two groups (14-18 years) with functional dysmenorrhea and manifestations of pronounced spastic symptoms were studied. Duration of the Phenotropil monotherapy (50 and 100 mg per day) was one month followed by administration of the drug at one-week courses as a preventive agent. Patients with functional dysmenorrhea were investigated for cAMP level in comparison with the norm control group. The cAMP level was determined using the standard kits, by the method based on the competition with the labeled cyclic 3′,5-adenosine monophosphate in the level of binding with […].

rats = test: Hemorrhagic stroke (intracerebral post-traumatic hematoma), McGrow scale; format: in vivo
Description: The stroke condition was simulated in male rats (270-320 g) at a local cerebral hemorrhage, as a hemorrhagic stroke (intracerebral post-traumatic hematoma) by the method of A. N. Makarenko et al (1990) and at cerebral ischemia with distal occlusion of the middle cerebral artery (Chen S. T., Hsu C. Y., Hogan E. L., Maricq H., Balentine J. D. A model of focal ischemic stroke in the rat reproducible extensive cortical infarction//Stroke.—1989, V. 17, No 4, p. 738-743) as an ischemic stroke. Phenotropil was injected intraperitoneally at hemorrhagic stroke at 100 mg/kg immediately after surgery, and one hour before and two hours after the surgery (at doses of 100, 200 and 300 mg/kg) at ischemic stroke. Control animals were treated adequately with distilled water.

[3] = rats, hemorrhagic stroke, 100 mg/kg i.p., 1 day after surgery

## NC(=O)CN1CC(c2ccccc2)CC1=O (racemic) [Compound 1, (RS)-2-(2-oxo-4-phenylpyrrolidine-1-yl)acetamide]
Mice [1]; 100 mg/kg
  increase of horizontal locomotor activity: 112.2%
  increase of number of visits to the center vs control: 111%
  increase of total exploratory behavior index: 50%
  increase of total vertical locomotor activity: 237.5%
  reduction of total index of washes vs control: 25%
Mice [1]; 200 mg/kg
  decrease of total exploratory behavior index: 32%
  increase of horizontal locomotor activity: 151.8%
  increase of number of visits to the center vs control: 155%
  vertical activity over three minutes vs control: −6.3%
Mice [1]; 300 mg/kg
  increase of horizontal locomotor activity: 99.5%
  increase of number of visits to the center vs control: 133%
  increase of total index of explored holes: 27%
  number of rearings at the first minute vs control: −75%
  total number of rearings for 3 minutes vs control: +56%
Mice [1]; 100 mg/kg i.p.
  Distance covered during 1st min (horizontal motor activity): 23.7 ± 5*^
  Distance during 2nd min (horizontal motor activity): 22.5 ± 3.1
  Distance during 3rd min (horizontal motor activity): 44 ± 10.7
  Explorations during 2nd min: 1.5 ± 0.4
  Explorations during 3rd min: 1.3 ± 0.7
  Number of explorations (holes) during 1st min: 0.5 ± 0.3
  Number of washings during 1st min: 0.2 ± 0.2
  Total distance at 3 min (horizontal motor activity): 90.2 ± 8.7
  Total number of explorations at 3 min: 3.3 ± 0.9
  Total number of visits to the center at 3 min: 3.9 ± 0.6
  Total number of washings at 3 min: 0.3 ± 0.2^
  Visits to the center during 1st min: 0.7 ± 0.5
  Visits to the center during 2nd min: 2.2 ± 0.8
  Visits to the center during 3rd min: 1 ± 0.5
  Washings during 2nd min: 0.1 ± 0.2^
  Washings during 3rd min: 0 ± 0
  vertical motor activity, 1st min (Distance covered): 2.3 ± 1.1
  vertical motor activity, 2nd min: 3.8 ± 1.7
  vertical motor activity, 3rd min: 4.7 ± 1.6
  vertical motor activity, total at 3 min: 10.8 ± 4.2
Mice [1]; 200 mg/kg i.p.
  Distance covered during 1st min (horizontal motor activity): 31.7 ± 2.8
  Distance during 2nd min (horizontal motor activity): 41.8 ± 7.0
  Distance during 3rd min (horizontal motor activity): 33.5 ± 4.7
  Explorations during 2nd min: 0.8 ± 0.5
  Explorations during 3rd min: 0.5 ± 0.5
  Number of explorations (holes) during 1st min: 0.2 ± 0.2
  Number of washings during 1st min: 0 ± 0
  Total distance at 3 min (horizontal motor activity): 107 ± 11.5
  Total number of explorations at 3 min: 1.5 ± 0.9
  Total number of visits to the center at 3 min: 4.7 ± 0.7
  Visits to the center during 1st min: 0.3 ± 0.2
  Visits to the center during 2nd min: 2.7 ± 0.4
  Visits to the center during 3rd min: 1.7 ± 0.4
  Washings during 2nd min: 0 + 0 *
  Washings during 3rd min: 0 ± 0
  vertical motor activity, 1st min (Distance covered): 0 ± 0
  vertical motor activity, 2nd min: 1.3 ± 0.7
  vertical motor activity, 3rd min: 1.7 ± 0.7
  vertical motor activity, total at 3 min: 3.0 ± 1.3
Mice [1]; 300 mg/kg i.p.
  Distance covered during 1st min (horizontal motor activity): 29.7 ± 12.3
  Distance during 2nd min (horizontal motor activity): 27.2 ± 10.2
  Distance during 3rd min (horizontal motor activity): 28 ± 6.4
  Explorations during 2nd min: 1.5 ± 0.8
  Explorations during 3rd min: 1.0 ± 0.8
  Number of explorations (holes) during 1st min: 0.3 ± 0.2
  Number of washings during 1st min: 0.2 ± 0.2
  Total distance at 3 min (horizontal motor activity): 84.8 ± 28.0
  Total number of explorations at 3 min: 2.8 ± 1.4
  Total number of visits to the center at 3 min: 4.2 ± 0.8
  Total number of washings at 3 min: 0.2 ± 0.2
  Visits to the center during 1st min: 1.2 ± 0.4
  Visits to the center during 2nd min: 1.3 ± 0.5
  Visits to the center during 3rd min: 1.7 ± 0.5
  Washings during 2nd min: 0 ± 0
  Washings during 3rd min: 0 ± 0
  vertical motor activity, 1st min (Distance covered): 0.3 ± 0.2
  vertical motor activity, 2nd min: 2 ± 1.2
  vertical motor activity, 3rd min: 2.7 ± 1.1
  vertical motor activity, total at 3 min: 5.0 ± 1.8
Mice [2]
  reduction of amount of intakes for three minutes: 74.4%
  reduction of anxiety and emotional stress in the conflict situation vs control: 291.0%
Mice [2]; mice
  Number of water intakes for 3 min: 7.3 ± 3.9
  The time between the first and second intake of water: 31.1 ± 3.4 s
cAMP; functional dysmenorrhoea, monotherapy 50 and 100 mg per day, 30 days
  effect of course use on serum cAMP: restored the functional norm of cAMP indicators
cAMP; dose 50 mg
  cAMP level: 14.35 ± 0.87 nmol/L
  cAMP level, change in % (vs background dysmenorrhea): −32%
cAMP; dose 100 mg
  cAMP level: 12.77 ± 1.24 nmol/L
  cAMP level, change in % (vs background dysmenorrhea): −39%
rats; hemorrhagic and ischemic stroke in rats, follow up 14 days
  prevention of lethal outcomes, % of cases: 100%
rats; [3]
  % of animals with circling movements: 0* %
  % of animals with lethargy, slowness of movement: 30%
  % of animals with paralysis of 1-4 limbs: 0* %
  % of animals with paresis of 1-4 limbs: 20* %
  % of animals with weakness of limbs: 30* %
  Mortality: 0* %
